Read-outs that look alike come from different tables or passages of the source.
Columns and labels:
[1] = molecular target: T1, PRMT5 (Homo sapiens, UniProt O14744); assay: PRMT5 biochemical IC50 assay with SAM as cofactor; conditions: PRMT5, SAM as cofactor; read-out: SAM IC50
T1 construct: purchased Viva (custom protein)

[2] = molecular target: T1, PRMT5; assay: PRMT5 biochemical IC50 assay with no cofactor; conditions: PRMT5, no cofactor; read-out: No Cofactor/rel IC50
Description: Table 1 indicates IC50 values (μM) against PRMT5 for exemplary compounds in the presence of SAM as cofactor, with no cofactor, and with MTA as cofactor, respectively (columns 4-6). […] Ki values can be calculated from the IC50 values as described in the Examples section. As detailed in the Examples section, for the assay performed in the presence of SAM, IC50=Ki×1.5 (Ki=IC50/1.5).

[3] = molecular target: T1, PRMT5; assay: PRMT5 biochemical IC50 assay with MTA as cofactor; conditions: PRMT5, MTA as cofactor; read-out: MTA IC50
[4] = test system: HAP1 MTAP-deleted cell line; assay: Viability assay, MTAP-deleted cell line; assay type: cell-based; conditions: Homo sapiens, read-out: HAP1 MTAP deleted viability
Description: Table 1 additionally indicates IC50 values in a viability assay for the MTAP-deleted cell line (column 10), indicating the effect of treatment with compound on cell survival.

[5] = HAP1, viability IC50, MTAP-deleted cell line
[6] = HAP1, viability assay, HAP1 MTAP-deleted
[7] = HAP1, viability assay, MTAP-deleted cell line

T1 sequence (O14744 whole entry): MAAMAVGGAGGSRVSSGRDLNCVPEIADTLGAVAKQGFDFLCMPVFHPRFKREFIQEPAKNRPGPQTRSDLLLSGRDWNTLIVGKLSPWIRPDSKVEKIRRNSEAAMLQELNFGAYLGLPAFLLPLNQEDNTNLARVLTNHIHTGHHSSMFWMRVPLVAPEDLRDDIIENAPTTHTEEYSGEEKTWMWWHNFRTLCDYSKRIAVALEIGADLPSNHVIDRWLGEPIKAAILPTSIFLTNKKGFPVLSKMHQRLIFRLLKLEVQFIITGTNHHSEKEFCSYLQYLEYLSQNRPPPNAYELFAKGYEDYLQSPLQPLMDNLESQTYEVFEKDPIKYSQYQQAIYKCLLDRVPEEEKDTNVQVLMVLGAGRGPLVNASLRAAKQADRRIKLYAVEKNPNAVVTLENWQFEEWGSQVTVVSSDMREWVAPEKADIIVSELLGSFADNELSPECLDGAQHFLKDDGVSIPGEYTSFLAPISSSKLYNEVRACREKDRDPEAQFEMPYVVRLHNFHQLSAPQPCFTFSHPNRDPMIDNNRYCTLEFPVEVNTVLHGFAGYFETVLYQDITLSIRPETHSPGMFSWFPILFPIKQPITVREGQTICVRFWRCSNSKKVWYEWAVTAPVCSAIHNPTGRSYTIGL
T1 sequence (Q9BQA1 whole entry partner): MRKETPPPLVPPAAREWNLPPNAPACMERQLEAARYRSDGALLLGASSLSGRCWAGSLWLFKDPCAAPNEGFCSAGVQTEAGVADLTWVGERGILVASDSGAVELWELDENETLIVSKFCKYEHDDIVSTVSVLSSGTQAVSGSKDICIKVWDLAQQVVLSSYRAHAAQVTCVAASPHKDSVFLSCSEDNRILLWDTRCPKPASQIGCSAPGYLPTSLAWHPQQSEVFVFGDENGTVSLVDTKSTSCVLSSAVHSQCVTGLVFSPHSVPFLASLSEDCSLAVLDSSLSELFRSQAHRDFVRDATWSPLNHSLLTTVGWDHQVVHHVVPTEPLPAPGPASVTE

SMILES | IC50 [1] [nM] | IC50 [2] [nM] | IC50 [3] [nM] | IC50 [4, 5] [nM] | IC50 [4, 6] [nM] | IC50 [4, 7] [nM]
COc1ncc(NC(=O)C(=O)N2C[C@@H](C)CC[C@@H]2c2ccc3c(c2)CCC(=O)N3)cc1C(N)=O (single isomer, unassigned) [Compound 673] | > 500 | > 500 | > 500 | > 10000 |  | 
C[C@H]1CC[C@H](c2cc(F)c3[nH]ncc3c2)N(C(=O)C(=O)Nc2cncc(C(N)=O)c2)C1 (single isomer, unassigned) [Compound 680] | > 500 | > 500 | > 500 | > 10000 |  | 
CCc1cc(NC(=O)C(=O)N2C[C@H](C)CC[C@H]2c2ccc3c(c2)C(=O)NC3)cnc1N (single isomer, unassigned) [Compound 695] | > 500 | > 500 | > 500 | > 10000 |  | 
Cc1ncc(NC(=O)C(=O)N2C[C@@H](C)CC[C@@H]2c2ccc3c(c2)CCC(=O)N3)cc1C(F)(F)F (single isomer, unassigned) [Compound 698] | > 500 | > 500 | > 500 | > 10000 |  | 
CCc1cc(NC(=O)C(=O)N2C[C@H](C)CC[C@H]2c2ccc3c(c2)CNC3=O)cnc1N (single isomer, unassigned) [Compound 699, N-(6-amino-5-ethylpyridin-3-yl)-2-(5-methyl-2-(1-oxoisoindolin-5-yl)piperidin-1-yl)-2-oxoacetamide] | > 500 | > 500 | > 500 | > 10000 |  | 
Cc1cc(NC(=O)C(=O)N2C[C@@H](C)C(F)(F)C[C@@H]2c2ccccc2)cnc1N (single isomer, unassigned) [Compound 713] | > 500 | > 500 | > 500 |  | > 10000 | 
CNS(=O)(=O)c1ccc([C@@H]2CC[C@@H](C)CN2C(=O)C(=O)Nc2cncc(C(N)=O)c2)cc1 (single isomer, unassigned) [Compound 723] | > 500 | > 500 | > 500 |  | > 10000 | 
CC(=O)Nc1ccc([C@H]2CC[C@H](C)CN2C(=O)C(=O)Nc2cncc(C(N)=O)c2)cn1 (single isomer, unassigned) [Compound 905] | > 500 | > 500 | > 500 |  |  | > 10000
Cc1cc(NC(=O)C(=O)N2C[C@@H](C)CC[C@@H]2c2ccc3[nH]nc(N)c3c2)cnc1C (single isomer, unassigned) [Compound 958] | > 500 | > 500 | > 500 |  |  | > 10000
C[C@H]1CC[C@H](c2cc3cn[nH]c3s2)N(C(=O)C(=O)Nc2cncc(C(N)=O)c2)C1 (single isomer, unassigned) [Compound 971, 5-(2-(5-methyl-2-(1H-thieno[2,3-c]pyrazol-5-yl)piperidin-1-yl)-2-oxoacetamido)nicotinamide] | > 500 | > 500 | > 500 |  |  | > 10000
CCc1cc(NC(=O)C(=O)N2C[C@@H](C)CC[C@@H]2c2ccc(NS(C)(=O)=O)nc2)cnc1N (single isomer, unassigned) [Compound 983] | > 500 | > 500 | > 500 |  |  | > 10000
CCc1cc(NC(=O)C(=O)N2C[C@H](C)CC[C@H]2c2ccc3sc(N)nc3c2)cnc1N (single isomer, unassigned) [Compound 984] | > 500 | > 500 | > 500 |  |  | > 10000
C[C@H]1CC[C@H](c2ccc(NS(C)(=O)=O)nc2)N(C(=O)C(=O)Nc2cncc(C(N)=O)c2)C1 (single isomer, unassigned) [Compound 985] | > 500 | > 500 | > 500 |  |  | > 10000
C[C@H]1CC[C@H](c2ccc3sc(N)nc3c2)N(C(=O)C(=O)Nc2cncc(C(N)=O)c2)C1 (single isomer, unassigned) [Compound 987] | 50 to 500 | 50 to 500 | < 50 |  |  | 1000 to 10000
CCc1cc(NC(=O)C(=O)N2C[C@@H](C)CC[C@@H]2c2ccc3sc(N)nc3c2)cnc1N (single isomer, unassigned) [Compound 996] | 50 to 500 | < 50 | < 50 |  |  | < 1000
COc1ncc(NC(=O)C(=O)N2C[C@@H](C)CC[C@@H]2c2ccc(NS(C)(=O)=O)nc2)cc1C(N)=O (single isomer, unassigned) [Compound 999] | > 500 | > 500 | > 500 |  |  | > 10000
C[C@@H]1CC[C@@H](c2ccc3sc(N)nc3c2)N(C(=O)C(=O)Nc2cncc(C(N)=O)c2)C1 (single isomer, unassigned) [Compound 1001] | > 500 | > 500 | > 500 |  |  | > 10000
COc1ncc(NC(=O)C(=O)N2C[C@H](C)CC[C@H]2c2ccc3sc(C(F)(F)F)nc3c2)cc1C(N)=O (single isomer, unassigned) [Compound 1030] | > 500 | > 500 | > 500 |  |  | > 10000
Cc1cc(NC(=O)C(=O)N2C[C@@H](C)C(F)(F)C[C@@H]2c2cccc3[nH]ncc23)cnc1N (single isomer, unassigned) [Compound 1034] | > 500 | > 500 | > 500 |  |  | > 10000
Cc1cc(NC(=O)C(=O)N2C[C@H](C)C(F)(F)C[C@H]2c2cccc3[nH]ncc23)cnc1N (single isomer, unassigned) [Compound 1041] | 50 to 500 | < 50 | < 50 |  |  | < 1000

Continued, in another order:

IC50 [1] [nM] | IC50 [2] [nM] | IC50 [3] [nM] | SMILES | IC50 [4, 5] [nM] | IC50 [4, 6] [nM] | IC50 [4, 7] [nM]
> 500 | > 500 | 50 to 500 | Cc1cc(NC(=O)C(=O)N2C[C@H](C)CC[C@H]2c2cc(Cl)cc(C(F)(F)F)c2)cnc1N (single isomer, unassigned) [Compound 679] | > 10000 |  | 
> 500 | > 500 | 50 to 500 | Cc1cc(NC(=O)C(=O)N2C[C@@H](C)CC[C@@H]2c2cc(F)cc(Cl)c2)cnc1N (single isomer, unassigned) [Compound 682] | > 10000 |  | 
> 500 | > 500 | > 500 | Cc1cc(NC(=O)C(=O)N2C[C@H](C)CC[C@H]2c2cc(F)cc(F)c2)cnc1N (single isomer, unassigned) [Compound 712, N-(6-amino-5-methylpyridin-3-yl)-2-(2-(3,5-difluorophenyl)-5-methylpiperidin-1-yl)-2-oxoacetamide] |  | > 10000 | 
> 500 | > 500 | > 500 | Cc1cc(NC(=O)C(=O)N2C[C@H](C)CC[C@H]2c2ccc(S(C)(=O)=O)cc2)cnc1N (single isomer, unassigned) [Compound 938] |  |  | > 10000
> 500 | > 500 | > 500 | Cc1cc(NC(=O)C(=O)N2C[C@@H](C)CC[C@@H]2c2cccc3c2CCN3)cnc1N (single isomer, unassigned) [Compound 957] |  |  | > 10000
50 to 500 | 50 to 500 | < 50 | Cc1cc(NC(=O)C(=O)N2C[C@@H](C)CC[C@@H]2c2ccc(S(C)(=O)=O)cc2)cnc1N (single isomer, unassigned) [Compound 976] |  |  | 1000 to 10000
> 500 | > 500 | > 500 | Cc1cc(NC(=O)C(=O)N2C[C@H](C)CC[C@H]2c2ccc3sc(N)nc3c2)cnc1N (single isomer, unassigned) [Compound 981] |  |  | > 10000
> 500 | > 500 | > 500 | Cc1cc(NC(=O)C(=O)N2C[C@H](C)CC[C@H]2c2ccc3c(c2)CCNC3=O)cnc1N (single isomer, unassigned) [Compound 994] |  |  | > 10000
> 500 | > 500 | > 500 | Cc1cc(NC(=O)C(=O)N2C[C@@H](C)CC[C@@H]2c2ccc3cc[nH]c(=O)c3c2)cnc1N (single isomer, unassigned) [Compound 1021] |  |  | > 10000
50 to 500 | < 50 | < 50 | CCc1cc(NC(=O)C(=O)N2C[C@@H](C)CC[C@@H]2c2ccc3sc(C(F)(F)F)nc3c2)cnc1N (single isomer, unassigned) [Compound 1022] |  |  | < 1000
> 500 | > 500 | > 500 | CCc1cc(NC(=O)C(=O)N2C[C@H](C)CC[C@H]2c2ccc3sc(C(F)(F)F)nc3c2)cnc1N (single isomer, unassigned) [Compound 1027] |  |  | > 10000
< 50 | < 50 | < 50 | Cc1cc(NC(=O)C(=O)N2C[C@H](C)CC[C@H]2c2ccc3cc[nH]c(=O)c3c2)cnc1N (single isomer, unassigned) [Compound 1031] |  |  | < 1000
50 to 500 | 50 to 500 | < 50 | Cc1cc(NC(=O)C(=O)N2C[C@H](C)CC[C@H]2c2cccc3[nH]ccc23)cnc1N (single isomer, unassigned) [Compound 1035] |  |  | < 1000
> 500 | > 500 | > 500 | Cc1cc(NC(=O)C(=O)N2C[C@@H](C)CC[C@@H]2c2cccc3[nH]ccc23)cnc1N (single isomer, unassigned) [Compound 1038] |  |  | > 10000

— US11999727B2 (Tango Therapeutics, Inc., priority 2020, dated 2024)
